Usually half-life stands for the time in which the quantity being followed falls by half. A higher half-life goes with slow loss.

Here are results for 27 molecules from ChEMBL document CHEMBL1132822, “2,4,5-Trisubstituted imidazoles: novel nontoxic modulators of P-glycoprotein mediated multidrug resistance. Part 2” (Bioorg Med Chem Lett, 2000).

The target of data set [1] is ATP-dependent translocase ABCB1 (Homo sapiens, UniProt P08183). In words: Modulation of Pgp (P-glycoprotein) mediated multidrug resistance in CEM / VLB 1000 cell line. The settings on record: read-out: ED50 (the source's name). It is filed as functional, cell-based, CCRF-CEM.
Data set [2] can be described thus: Half life in Dog plasma at a dosage 5 mg/kg after intravenous administration. Set-up: dose 5 mg/kg, route intravenous. It counts as ADME, organism-based, Canis lupus familiaris.
Data set [3] deals with Homo sapiens. Nature of the data set: Compound concentration in plasma of healthy human (male) after 3-4h of 400 mg dose of compound given orally. It counts as functional.
For data set [4], the system named is Canis familiaris. In words: (§1) Oral bioavailability in dog (dose 10 mg/kg). It is filed as functional, organism-based. The conditions noted are these: Canis lupus familiaris.
Data set [5] is described as follows: as §1. It counts as ADME, organism-based, Canis lupus familiaris. The conditions noted are these: in vivo.

ATP-dependent translocase ABCB1, sequence (P08183 whole entry): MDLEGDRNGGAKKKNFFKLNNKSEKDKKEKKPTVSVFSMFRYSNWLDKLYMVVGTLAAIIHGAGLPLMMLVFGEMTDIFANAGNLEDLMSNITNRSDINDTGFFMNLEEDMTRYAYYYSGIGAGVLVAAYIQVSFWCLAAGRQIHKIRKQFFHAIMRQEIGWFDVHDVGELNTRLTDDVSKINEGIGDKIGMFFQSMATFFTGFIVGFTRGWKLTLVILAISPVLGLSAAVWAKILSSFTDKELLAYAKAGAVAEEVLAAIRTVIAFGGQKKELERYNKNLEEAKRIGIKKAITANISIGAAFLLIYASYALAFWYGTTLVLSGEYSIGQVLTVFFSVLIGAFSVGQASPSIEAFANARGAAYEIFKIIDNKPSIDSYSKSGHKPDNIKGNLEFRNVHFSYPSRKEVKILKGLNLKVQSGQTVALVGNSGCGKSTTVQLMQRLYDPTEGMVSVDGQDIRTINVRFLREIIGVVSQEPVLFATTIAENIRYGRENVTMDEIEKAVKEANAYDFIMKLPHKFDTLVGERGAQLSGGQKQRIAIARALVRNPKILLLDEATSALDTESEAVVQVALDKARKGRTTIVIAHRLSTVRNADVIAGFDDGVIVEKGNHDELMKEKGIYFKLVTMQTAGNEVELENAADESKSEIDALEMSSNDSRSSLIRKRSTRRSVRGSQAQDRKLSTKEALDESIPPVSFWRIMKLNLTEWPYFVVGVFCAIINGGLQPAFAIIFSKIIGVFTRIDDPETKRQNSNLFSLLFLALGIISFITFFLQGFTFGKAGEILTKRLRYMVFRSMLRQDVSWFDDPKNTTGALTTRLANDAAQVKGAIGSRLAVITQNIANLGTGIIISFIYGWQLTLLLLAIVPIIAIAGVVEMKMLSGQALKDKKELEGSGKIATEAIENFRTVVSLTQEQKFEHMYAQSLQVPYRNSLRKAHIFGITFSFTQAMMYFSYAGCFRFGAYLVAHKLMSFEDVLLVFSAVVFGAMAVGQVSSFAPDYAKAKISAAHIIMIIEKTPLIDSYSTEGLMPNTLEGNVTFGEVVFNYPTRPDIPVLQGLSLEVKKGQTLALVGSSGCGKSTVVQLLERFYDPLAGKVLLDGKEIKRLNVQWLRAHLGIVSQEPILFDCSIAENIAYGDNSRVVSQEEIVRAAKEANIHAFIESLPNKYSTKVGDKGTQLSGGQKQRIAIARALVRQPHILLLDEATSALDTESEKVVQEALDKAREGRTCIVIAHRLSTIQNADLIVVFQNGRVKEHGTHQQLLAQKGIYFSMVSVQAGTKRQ

For `CCOC/C=C/c1ccc(-c2nc(-c3ccc(N(CC)CC)cc3)c[nH]2)cc1`, the EC50 in data set [1] was found to be 300 nM.
`CCOC/C=C/c1ccc(-c2nc(-c3ccc(NC(C)C)cc3)c(-c3ccc(NC(C)C)cc3)[nH]2)cc1` had a half-life in data set [2] of 2.79 h. Also, the EC50 in data set [1] was found to be 50 nM. Further, the Concentration in data set [3] amounted to 3 µM. The bioavailability in data set [4] is 41%.
In the case of `CNc1ccc(-c2nc(-c3ccc(/C=C/C(=O)OC)cc3)[nH]c2-c2ccc(NC)cc2)cc1`, the EC50 in data set [1] stood at 200 nM.
For `CCOC/C=C/c1ccc(-c2nc(-c3ccc(N(CC)CC)cc3)c(-c3ccc(N(CC)CC)cc3)[nH]2)cc1`, the EC50 in data set [1] was 260 nM.
Take `CCOC/C=C/c1ccc(-c2nc(-c3ccc(NC(C)C)cc3)c(-c3ccc(NC)cc3)[nH]2)cc1`: the half-life in data set [2] is 1.35 h. Also, the EC50 in data set [1] worked out at 50 nM. In data set [4], this molecule yielded a bioavailability of 36%.
Regarding `COC(=O)/C=C/c1ccc(-c2nc(-c3ccc(N4CCCC4)cc3)c(-c3ccc(N4CCCC4)cc3)[nH]2)cc1`, in data set [1], the EC50 is 370 nM.
Regarding `CCN(CC)c1ccc(-c2[nH]c(-c3ccc(/C=C/C(=O)OC)cc3)nc2-c2ccc(NC)cc2)cc1`, in data set [1], the EC50 amounted to 70 nM.
In the case of `CNc1ccc(-c2[nH]c(-c3ccc(/C=C/C(=O)OC)cc3)nc2-c2ccc(NC(C)C)cc2)cc1`, the EC50 in data set [1] came to 120 nM.
Same read-out and setting: the value for `COC(=O)/C=C/c1ccc(-c2nc(-c3ccc(N(C)C)cc3)c(-c3ccc(N(C)C)cc3)[nH]2)cc1` was 300 nM.
With `CCOC/C=C/c1ccc(-c2nc(-c3ccc(NC)cc3)c(-c3ccc(N4CCCC4)cc3)[nH]2)cc1`, the EC50 in data set [1] was determined as 150 nM.
On to `CCN(CC)c1ccc(-c2[nH]c(-c3ccc(/C=C/C(=O)OC)cc3)nc2-c2ccc(N)cc2)cc1`, for which, in data set [1], the EC50 came out at 310 nM.
Molecule `CCOC/C=C/c1ccc(-c2nc(-c3ccc(N(C)C)cc3)c(-c3ccc(N(C)C)cc3)[nH]2)cc1` had a half-life in data set [2] of 0.5 h. For the same molecule, in data set [5], the bioavailability worked out at 35%. For the same molecule, the EC50 in data set [1] was 80 nM.
Consider `CNc1ccc(-c2[nH]c(-c3ccc(/C=C/CCOC)cc3)nc2-c2ccc(N(C)C)cc2)cc1`, for which the EC50 in data set [1] stood at 110 nM.
Consider `CCOC/C=C/c1ccc(-c2nc(-c3ccc(NC(C)C)cc3)c[nH]2)cc1`, for which, in data set [1], the EC50 amounted to 340 nM.
Same read-out and setting: to `CCN(CC)c1ccc(-c2nc(-c3ccc(/C=C/C(=O)OC)cc3)[nH]c2-c2ccc(N(CC)CC)cc2)cc1` belongs 570 nM; to `CCCN(CCC)c1ccc(-c2c[nH]c(-c3ccc(/C=C/COCC)cc3)n2)cc1`, 280 nM.
`COC(=O)/C=C/c1ccc(-c2nc(-c3ccc(N)cc3)c(-c3ccc(N(C)C)cc3)[nH]2)cc1`: the EC50 in data set [1] stood at 590 nM.
In the case of `CCOC/C=C/c1ccc(-c2nc(-c3ccc(F)cc3)c(-c3ccc(NC(C)C)cc3)[nH]2)cc1`, the half-life in data set [2] was 1.27 h. Besides, the EC50 in data set [1] was determined as 160 nM. The same molecule registered a bioavailability in data set [4] of 45%.
In the case of `CCNc1ccc(-c2[nH]c(-c3ccc(/C=C/COCC)cc3)nc2-c2ccc(NC(C)C)cc2)cc1`, in data set [1], the EC50 came to 50 nM.
As to `CCOCC/C=C/c1ccc(-c2nc(-c3ccc(NC)cc3)c(-c3ccc(N(CC)CC)cc3)[nH]2)cc1`, the EC50 in data set [1] turned out to be 60 nM.
Regarding `CCOC/C=C/c1ccc(-c2nc(-c3ccc(NCC(C)C)cc3)c[nH]2)cc1`, the EC50 in data set [1] is 250 nM.
On to `CCOC/C=C/c1ccc(-c2nc(-c3ccc(N4CCOCC4)cc3)c[nH]2)cc1`, for which, in data set [1], the EC50 worked out at 370 nM.
On the same count and under the same terms, to `CCOC/C=C/c1ccc(-c2nc(-c3ccc(N4CCOCC4)cc3)c(-c3ccc(N4CCOCC4)cc3)[nH]2)cc1` belongs 220 nM; to `C=CCN(CC=C)c1ccc(-c2nc(-c3ccc(/C=C/C(=O)OC)cc3)[nH]c2-c2ccc(N(CC=C)CC=C)cc2)cc1`, 5500 nM; to `CNc1ccc(-c2[nH]c(-c3ccc(/C=C/C(=O)OC)cc3)nc2-c2ccc(N(C)C)cc2)cc1`, 130 nM.
As for `CCCN(CCC)c1ccc(-c2[nH]c(-c3ccc(/C=C/C(=O)OC)cc3)nc2-c2ccc(NC)cc2)cc1`, the EC50 in data set [1] was found to be 180 nM.
Regarding `CCCCN(CCCC)c1ccc(-c2[nH]c(-c3ccc(/C=C/C(=O)OC)cc3)nc2-c2ccc(NC)cc2)cc1`, the EC50 in data set [1] was determined as 2100 nM.
